According to US9045468B2, “2,5-methano- and 2,5-ethano-tetrahydrobenzazepine derivatives and use thereof to block reuptake of norepinephrine, dopamine, and serotonin” (Albany Molecular Research, Inc., priority 2010, dated 2015):
pIC50: −log10 of the molar value. Like-named read-outs stand apart in the source and are kept apart here.

Legend:
[1] = biological target: hSERT (Homo sapiens (Human), UniProt P31645); assay: SERT radioligand binding assay ([125I]RTI-55, HEK-293 membranes); conditions: for IC50: recombinant HEK-293 membranes, [125I]RTI-55, read-out: Binding Affinity (IC50, nM) SERT
Method: (§1) The medium was removed from the flasks and the cells rinsed with HBSS without Ca and without Mg. The cells were then incubated for 5-10 minutes in 10 mM Tris-Cl, pH 7.5, 5 mM EDTA before the cells were lifted with a combination of pipetting and scraping, as needed. The cell suspension was collected into centrifuge bottles and homogenized for 30 seconds with a Polytron homogenizer. The suspension was centrifuged for 30 minutes at 32,000×g, 4° C. The supernatant was decanted and the pellet resuspended and homogenized in 50 mM Tris-Cl, pH 7.5, 1 mM EDTA for 10 seconds. The suspension was then centrifuged again for 30 minutes at 32,000×g, 4° C. The supernatant was decanted and the pellet resuspended in 50 mM Tris-Cl, pH 7.5, 1 mM EDTA and briefly homogenized. A Bradford assay (Bio-rad) was performed and the membrane preparation diluted to 2 mg/ml with 50 mM Tris-Cl, pH 7.5, 1 mM EDTA. Aliquots were prepared, and then frozen and stored at −80° C.
Compounds were dissolved in 100% DMSO at a concentration 100 times the desired highest assay concentration, serially diluted 1:3 in 100% DMSO, and 0.4 μl/well of each solution was dispensed to a Nunc polypropylene, round bottom, 384-well plate. […] The contents of the assay plate were then transferred to a Millipore MultiscreenHTS GF/B filter plate which was pretreated with 0.5% PEI for at least one hour. The plate was vacuum filtered and washed with 7 washes of […] 50 mM Tris-Cl, pH 7.5, 120 mM NaCl, 5 mM KCl chilled to 4° C. The filtration and washing were completed in less than 90 seconds. The plates were air-dried overnight, 12 μl/well of MicroScint scintillation fluid added, and the plates counted in a Trilux.
(§2) Each plate was run in triplicate, and the concentration response curve thus generated was fit using the four-parameter dose response equation, Y=Bottom+(Top-Bottom)/(1+10^((Log IC50−X)*HillSlope)) in order to determine the IC50 value for each compound. The radioligand concentration chosen for each assay corresponds to the Kd concentration determined through saturation binding analysis for each assay.

[2] = biological target: hDAT (Homo sapiens (Human), UniProt Q01959); assay: DAT radioligand binding assay ([125I]RTI-55, HEK-293 membranes); conditions: for IC50: recombinant HEK-293 membranes, [125I]RTI-55, read-out: Binding Affinity (IC50, nM) DAT
Method: as §1, with “Recombinant HEK-293 cells expressing either the hSERT, hDAT, or hNET proteins were harvested from T-175 flasks as follows. The medium” for “The medium”
Compounds were dissolved in 100% DMSO at a concentration 100 times the desired highest assay concentration, serially diluted 1:3 in 100% DMSO, and 0.4 μl/well of each solution was dispensed to a Nunc polypropylene, round bottom, 384-well plate. […] 20 ul/well of a 2× membrane preparation (12.5 μg/ml in 30 mM sodium phosphate buffer, pH 7.9 at 4° C.) and 20 μl/well of a 2× radioligand solution (250 pM [^125I]RTI-55 in 30 mM sodium phosphate buffer, pH 7.9 at 4° C.) were added to the well and the reaction incubated for 1 hour at room temperature. The contents of the assay plate were then transferred to a Millipore MultiscreenHTS GF/B filter plate which was pretreated with 0.5% PEI for at least one hour. The plate was vacuum-filtered and washed with 7 washes of 100 μl/well 50 mM Tris-Cl, pH 7.5, 120 mM NaCl, 5 mM KCl chilled to 4° C. The filtration and washing were completed in less than 90 seconds. The plates were air-dried overnight, 12 μl/well of MicroScint scintillation fluid added, and the plates counted in a Trilux.
as §2

[3] = biological target: hNET (Homo sapiens (Human), UniProt P23975); assay: NET radioligand binding assay ([3H]nisoxetine, HEK-293 membranes); conditions: for IC50: recombinant HEK-293 membranes, [3H]nisoxetine, read-out: Binding Affinity (IC50, nM) NET
Method: as §1
Compounds were dissolved in 100% DMSO at a concentration 100 times the desired highest assay concentration, serially diluted 1:3 in 100% DMSO, and 1.0 μl/well of each solution was dispensed to a Nunc polypropylene, round bottom, 384-well plate. […] 50 μl/well of a 2× membrane preparation (0.4 mg/ml in 50 mM Tris-Cl, pH 7.5, 120 mM NaCl, 5 mM KCl) and 50 μl/well of a 2× radioligand solution (4 nM [^3H]nisoxetine in 50 mM Tris-Cl, pH 7.5, 120 mM NaCl, 5 mM KCl) were added to the well and the reaction incubated for 1 hour at room temperature. The contents of the assay plate were then transferred to a Millipore MultiscreenHTS GF/B filter plate which was pretreated with 0.5% PEI for at least one hour. The plate was vacuum filtered and washed with 7 washes of 100 μl/well 50 mM Tris-Cl, pH 7.5, 120 mM NaCl, 5 mM KCl chilled to 4° C. The filtration and washing were completed in less than 90 seconds. The plates were air-dried overnight, 12 μl/well of MicroScint scintillation fluid added, and the plates counted in a Trilux.
as §2

Chain of hSERT (P31645 whole entry): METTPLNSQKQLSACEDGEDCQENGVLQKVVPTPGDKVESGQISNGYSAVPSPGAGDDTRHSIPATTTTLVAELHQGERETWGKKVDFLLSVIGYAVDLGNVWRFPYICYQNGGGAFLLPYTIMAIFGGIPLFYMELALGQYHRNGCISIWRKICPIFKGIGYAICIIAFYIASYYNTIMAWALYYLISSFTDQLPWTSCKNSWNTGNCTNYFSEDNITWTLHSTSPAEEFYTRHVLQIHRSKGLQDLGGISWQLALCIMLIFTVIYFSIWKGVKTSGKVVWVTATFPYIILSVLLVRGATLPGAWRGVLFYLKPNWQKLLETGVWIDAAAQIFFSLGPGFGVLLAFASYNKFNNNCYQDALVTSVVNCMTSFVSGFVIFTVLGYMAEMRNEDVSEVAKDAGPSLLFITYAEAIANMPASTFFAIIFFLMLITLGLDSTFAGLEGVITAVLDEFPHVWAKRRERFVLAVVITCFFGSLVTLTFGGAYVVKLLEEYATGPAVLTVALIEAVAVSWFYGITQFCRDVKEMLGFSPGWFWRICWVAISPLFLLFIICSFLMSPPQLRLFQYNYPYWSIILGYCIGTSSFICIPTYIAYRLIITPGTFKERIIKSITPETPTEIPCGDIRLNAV
Chain of hDAT (Q01959 whole entry): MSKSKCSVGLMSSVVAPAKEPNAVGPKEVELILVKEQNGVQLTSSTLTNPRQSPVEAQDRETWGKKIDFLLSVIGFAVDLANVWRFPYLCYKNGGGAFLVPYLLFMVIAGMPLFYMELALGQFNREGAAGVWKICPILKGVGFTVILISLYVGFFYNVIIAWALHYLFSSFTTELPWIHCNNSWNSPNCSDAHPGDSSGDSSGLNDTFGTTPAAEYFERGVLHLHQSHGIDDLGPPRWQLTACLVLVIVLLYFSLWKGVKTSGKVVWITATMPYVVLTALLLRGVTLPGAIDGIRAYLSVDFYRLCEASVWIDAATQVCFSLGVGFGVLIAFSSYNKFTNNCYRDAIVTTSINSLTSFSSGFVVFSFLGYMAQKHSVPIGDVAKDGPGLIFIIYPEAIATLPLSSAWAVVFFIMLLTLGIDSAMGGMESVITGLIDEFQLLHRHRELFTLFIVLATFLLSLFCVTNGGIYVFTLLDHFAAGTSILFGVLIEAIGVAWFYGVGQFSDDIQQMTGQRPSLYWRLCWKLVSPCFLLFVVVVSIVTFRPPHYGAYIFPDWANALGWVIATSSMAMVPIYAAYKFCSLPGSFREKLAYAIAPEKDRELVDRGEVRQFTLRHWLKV
Chain of hNET (P23975 whole entry): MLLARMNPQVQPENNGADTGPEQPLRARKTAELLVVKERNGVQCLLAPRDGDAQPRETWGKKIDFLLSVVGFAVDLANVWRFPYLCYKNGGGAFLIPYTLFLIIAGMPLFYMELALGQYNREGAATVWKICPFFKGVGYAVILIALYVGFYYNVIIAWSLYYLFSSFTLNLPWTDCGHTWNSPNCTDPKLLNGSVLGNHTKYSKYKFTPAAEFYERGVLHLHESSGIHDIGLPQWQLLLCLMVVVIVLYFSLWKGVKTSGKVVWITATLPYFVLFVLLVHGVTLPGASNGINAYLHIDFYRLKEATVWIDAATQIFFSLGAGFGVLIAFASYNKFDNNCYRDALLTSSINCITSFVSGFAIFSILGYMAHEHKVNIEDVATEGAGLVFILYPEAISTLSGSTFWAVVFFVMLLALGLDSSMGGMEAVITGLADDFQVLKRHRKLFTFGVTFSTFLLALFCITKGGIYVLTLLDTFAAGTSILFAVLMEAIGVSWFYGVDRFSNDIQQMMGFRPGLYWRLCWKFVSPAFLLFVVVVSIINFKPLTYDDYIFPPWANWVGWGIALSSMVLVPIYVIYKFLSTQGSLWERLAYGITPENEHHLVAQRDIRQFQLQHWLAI

| Compound | IC50 [1] | IC50 [2] | IC50 [3] | pIC50 [1] | pIC50 [2] | pIC50 [3] |
| --- | --- | --- | --- | --- | --- | --- |
| Fc1ccc(C23CCN(Cc4cc(-c5ccc(C(F)(F)F)nn5)ccc42)C3)cc1Cl (single isomer, unassigned) [56(−), 5-(3-chloro-4-fluorophenyl)-2,5-methano-8-(6-(trifluoromethyl)pyridazin-3-yl)-2,3,4,5-tetrahydro-1H-benzo[c]azepine] | 57.8 nM | 243 nM | 798 nM |  |  |  |
| COc1ccc2c(c1)CN1CCC2(c2ccc(Cl)cc2)CC1 [Example 12, 5-(4-chlorophenyl)-8-methoxy-2,5-ethano-2,3,4,5-tetrahydro-1H-2-benzo[c]azepine] | 7.8 nM | 52 nM | 881 nM |  |  |  |
| Oc1ccc2c(c1)CN1CCC2(c2ccc(Cl)cc2)CC1 [Example 13, 5-(4-chlorophenyl)-2,5-ethano-2,3,4,5-tetrahydro-1H-2-benzo[c]azepin-8-ol] | 16.3 nM | 21.1 nM | 691 nM |  |  |  |
| FC(F)(F)c1ccc(-c2ccc3c(c2)CN2CCC3(c3ccc(Cl)cc3)CC2)nn1 [Example 15, 5-(4-chlorophenyl)-2,5-ethano-8-(6-(trifluoromethyl)pyridazin-3-yl)-2,3,4,5-tetrahydro-1H-benzo[c]azepine] |  |  | 384 nM | 8.59 | 6.92 |  |
| Clc1ccc(C23CCN(CC2)Cc2cc(-c4cncnc4)ccc23)cc1 [Example 16, 5-(4-chlorophenyl)-2,5-ethano-8-(pyrimidin-5-yl)-2,3,4,5-tetrahydro-1H-benzo[c]azepine] | 7.3 nM | 156 nM | 2930 nM |  |  |  |
| Cc1nnc2ccc(-c3ccc4c(c3)CN3CCC4(c4ccc(Cl)cc4)CC3)cn12 [Example 20, 5-(4-chlorophenyl)-2,5-ethano-8-(3-methyl-[1,2,4]triazolo[4,3-a]pyridin-6-yl)-2,3,4,5-tetrahydro-1H-benzo[c]azepine] | 12.1 nM | 220 nM | 1020 nM |  |  |  |
| Clc1ccc(C23CCN(CC2)Cc2cc(-c4cnc5ccccc5n4)ccc23)cc1 [Example 21, 5-(4-chlorophenyl)-2,5-ethano-8-(quinoxalin-2-yl)-2,3,4,5-tetrahydro-1H-benzo[c]azepine] | 5.2 nM | 353 nM | 1540 nM |  |  |  |
| O=c1n(-c2ccc3c(c2)CN2CCC3(c3ccc(Cl)cc3)CC2)nc2ccccn12 [Example 23, 2-(5-(4-chlorophenyl)-2,5-ethano-2,3,4,5-tetrahydro-1H-benzo[c]azepin-8-yl)-[1,2,4]triazolo[4,3-a]pyridin-3(2H)-one] | 1.5 nM | 37.5 nM | 176 nM |  |  |  |
| O=c1ccccn1-c1ccc2c(c1)CN1CCC2(c2ccc(Cl)cc2)CC1 [Example 24, 1-(5-(4-chlorophenyl)-2,5-ethano-2,3,4,5-tetrahydro-1H-benzo[c]azepin-8-yl)pyridin-2(1H)-one] | 7.3 nM | 856 nM | 5330 nM |  |  |  |
| Cc1nnc(-c2ccc3c(c2)CN2CCC3(c3ccc(Cl)cc3)CC2)s1 [Example 25, 2-(5-(4-chlorophenyl)-2,5-ethano-2,3,4,5-tetrahydro-1H-benzo[c]azepin-8-yl)-5-methyl-1,3,4-thiadiazole] | 6.4 nM | 169 nM | 392 nM |  |  |  |
| N#Cc1cccc(-c2ccc3c(c2)CN2CCC3(c3ccc(Cl)cc3)CC2)c1 [Example 27, 3-(5-(4-chlorophenyl)-2,5-ethano-2,3,4,5-tetrahydro-1H-benzo[c]azepin-8-yl)benzonitrile] |  | 135 nM |  | 8.47 |  | 6.45 |
| Clc1ccc(C23CCN(CC2)Cc2cc(N4CCOCC4)ccc23)cc1 [Example 28, 4-(5-(4-chlorophenyl)-2,5-ethano-2,3,4,5-tetrahydro-1H-benzo[c]azepin-8-yl)morpholine] | 8 nM | 58.9 nM | 438 nM |  |  |  |
| c1cc(C23CCN(CC2)Cc2cc(N4CCOCC4)ccc23)ccc1N1CCOCC1 [Example 29, 4-(2,5-ethano-5-(4-morpholinophenyl)-2,3,4,5-tetrahydro-1H-benzo[c]azepin-8-yl)morpholine] | 328 nM | 5260 nM | 5460 nM |  |  |  |
| CCS(=O)(=O)N1CCN(c2ccc3c(c2)CN2CCC3(c3ccc(Cl)cc3)CC2)CC1 [Example 30, 5-(4-chlorophenyl)-8-(4-(ethylsulfonyl)piperazin-1-yl)-2,5-ethano-2,3,4,5-tetrahydro-1H-benzo[c]azepine] | 10 nM | 13.6 nM | 55.8 nM |  |  |  |
| CCS(=O)(=O)N1CCN(c2ccc(C34CCN(CC3)Cc3cc(N5CCN(S(=O)(=O)CC)CC5)ccc34)cc2)CC1 [Example 31, 8-(4-(ethylsulfonyl)piperazin-1-yl)-5-(4-(4-(ethylsulfonyl)piperazin-1-yl)phenyl)-2,5-ethano-2,3,4,5-tetrahydro-1H-benzo[c]azepine] | 2320 nM | 4020 nM | 8300 nM |  |  |  |
| Clc1ccc(C23CCN(CC2)Cc2cc(Oc4cnccn4)ccc23)cc1 [Example 33, 5-(4-chlorophenyl)-2,5-ethano-8-(pyrazin-2-yloxy)-2,3,4,5-tetrahydro-1H-benzo[c]azepine] | 6.1 nM | 116 nM | 910 nM |  |  |  |
| Nc1cnc(Oc2ccc3c(c2)CN2CCC3(c3ccc(Cl)cc3)CC2)cn1 [Example 34, 5-(5-(4-chlorophenyl)-2,5-ethano-2,3,4,5-tetrahydro-1H-benzo[c]azepin-8-yloxy)pyrazin-2-amine] | 2.3 nM | 104 nM | 430 nM |  |  |  |
| Clc1ccc(C23CCN(CC2)Cc2cc(OCCCc4ccncc4)ccc23)cc1 [Example 35, 5-(4-chlorophenyl)-2,5-ethano-8-(3-(pyridin-4-yl)propoxy)-2,3,4,5-tetrahydro-1H-benzo[c]azepine] | 4.2 nM | 205 nM | 54.8 nM |  |  |  |
| Clc1ccc(C23CCN(CC2)Cc2cc(OCCCc4cccnc4)ccc23)cc1 [Example 36, 5-(4-chlorophenyl)-2,5-ethano-8-(3-(pyridin-3-yl)propoxy)-2,3,4,5-tetrahydro-1H-benzo[c]azepine] | 1.2 nM | 65.7 nM | 62.3 nM |  |  |  |
